Results published in patent publication EP0182609A2, “Polycyclic biocidal compounds, their synthesis, formulations containing them” (THE WELLCOME FOUNDATION LIMITED, priority 1984, dated 1986).
Like-named read-outs stand apart in the source and are kept apart here.

How the values were obtained:
Saccharomyces cerevisiae = test: In vitro antifungal activity, minimum fungistatic concentration; assay type: cell-based; settings: read-out: Minimum Fungistatic Concentration
Method: The minimum fungistatic concentrations of compounds of the formula (I) against various fungi were obtained using standard techniques. The tests were carried out in either medium A or medium B (see below) and the standard used in each instance was Miconazole nitrate.

[1] = LD20 determined in the P388/0 test; assay type: in vivo
Method: (§1) CD2-F1 mice, of the same sex, weighing 20t3g are used for this test. Control and test animals are injected intraperitoneally with a suspension of -10^6 viable P388/0 tumor cells on day 0. In each test several dose levels which bracket the LD20 for the compound are evaluated; each dose level group contains 6 animals. The test compounds are prepared either in physiologic saline containing 0.05% Tween 80 or distilled water containing 5% dextrose and are administered intraperitoneally on days 1, 5, and 9 relative to tumor implant. Doses are on a mg/kg basis according to individual animals' body weights. The day of death for each animal is recorded, the median identified for each group and the ratios of median survival time for treated (T)/control (C) groups are calculated. The criterion for activity is T/C x 100 >120%.

P388/0 tumor cells = test: Lymphocytic Leukemia P388/0 Test; assay type: in vivo, CD2-F1 mice; settings: for Optimal Dose: intraperitoneally on days 1, 5, and 9 relative to tumor implant; for T/C x 100% (Excluding 30 Day survivors): median survival time treated/control at optimal dose, i.p. days 1, 5, and 9, criterion for activity >120%
Excerpt: Methods for evaluating the antitumour activity of these compounds are essentially those used in the Tumor Panel by the Developmental Therapeutics Program, Division of Cancer Treatment, National Cancer institute, A. Goldin, et al., Methods in Cancer Research, Vol. XVI, p. 165, Academic Press (1979). Some modifications, in dose level and schedule have been made to increase the testing efficiency.
as §1

[2] = intraperitoneally on days 1, 5, and 9, tumor-bearing mice

Compound | MIC (Saccharomyces cerevisiae; medium A or medium B) [µg/mL] | LD20 ([1]; mouse, in vivo, ip) [mg/kg] | Optimal Dose (P388/0 tumor cells) [mg/kg] | T/C x 100% (Excluding 30 Day survivors) (P388/0 tumor cells) | LD20 [1, 2] [mg/kg] | MIC (Saccharomyces cerevisiae) [µg/mL]
Clc1ccc(COC(Cn2ccnc2)c2ccc(Cl)cc2Cl)c(Cl)c1 (centres unmarked) [Miconazole Nitrate, Miconazole nitrate, reference compound] | ≤ 0.4 | – | – | – | – | –
CC(CO)(CO)NCc1c2ccccc2c(Cl)c2cc3ccccc3cc12 [Example 6B, 2-[(12-Chloro-5-naphthacenylmethyl)amino]-2-methyl-1,3-propanediol methanesulfonate] | – | 70 | 75 | +150% | – | –
CC(CO)(CO)NCc1c2c(cc3ccccc13)Cc1ccccc1-2 [Example 4B, 2-[(11H-Benzo[b]fluoren-5-ylmethyl)amino]-2-methyl-1,3-propanediol methanesulfonate] | – | 300 | 225 | +280% | – | –
CC(CO)(CO)NCc1c2ccccc2cc2c1ccc1ccccc12 [Example 1, 2-((7-Benz[a]anthracenylmethyl)amino)-2-methyl-1,3-propanediol methanesulfonate] | – | – | 220 | +270% | 180 | –
CC(CO)(CO)NCc1c2ccccc2c(Cl)c2cc3ccccc3cc12.Cl [Example 6C, 2-[(12-chloro-5-naphthacenylmethyl)amino]-2-methyl-1,3-propanediol hydrochloride] | – | – | 40 | +150% | 70 | –
CC(CO)(CO)NCc1c2ccccc2c2ccc3cccc4ccc1c2c43 [Example 2, 2-[(Benzo[a]pyren-6-ylmethyl)amino]-2-methyl-1,3-propanediol methanesulfonate] | – | – | 111 | +204% | 100 | –
CC(CO)(CO)NCc1c2ccccc2cc2cc3ccccc3cc12 [Example 3C, 2-[(5-naphthacenylmethyl)amino]-2-methyl-1,3-propanediol methanesulfonate] | – | 50 | 60 | +195% | – | –
CC(CO)(CO)NCc1cc2ccc3ccccc3c2c2ccccc12 [Example 5B, 2[(Benzo[c]phenanthren-5-ylmethyl)amino]-2-methyl-1,3-propanediol methanesulfonate] | – | – | 15 | +140% | 10 | ≤ 0.4
